This passage reports EC50, IC50 and outcome results from PubChem BioAssay AID179 (DTP/NCI, 2004).

For this experiment, the system named is CEM cells HIV-1 protection, formazan growth assay. Nature of the experiment: NCI AIDS Antiviral Assay. The conditions noted are these: for IC50: measured here: growth of uninfected CEM cells. The method in brief: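 Protection of CEM cells against HIV-1 measured as cell growth via soluble formazan read-out, with five concentrations tested on both infected and uninfected cells; failure to protect may reflect toxicity.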

Active and inactive are the calls of the source.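 The calls were made as follows: active = compounds giving half or more protection of infected cells from virus-caused growth loss, again on retest; inactive = the rest.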

Consider `CO[C@@]12CC(=O)/C(=C(O)\C=C\c3ccccc3)C(=O)[C@]1(OC)Cc1ccccc1O2`, for which the EC50 is above 17.8 µM and the IC50 stood at 15.5 µM.

`CCCCCCCCCCCCCCCC(=O)OCC1OC(n2ccc(N)nc2=O)C(O)C1O` (stereo unspecified): the EC50 was above 0.2 µM and the IC50 is 0.0129 µM.

As to `CCOc1ccc(/C=C2\NC(=S)N(/C=C3\C(=O)Oc4ccccc4C3=O)C2=O)cc1`, the result was inactive.

Take `CC(C)CNC1=NCC(C)S1` (stereo unspecified): the EC50 is above 200 µM and the IC50 was above 200 µM.

`COc1cc(C2C(O)N(C)C(=O)C23CCCN3C)c(Br)cc1Br` (stereo unspecified): the result was inactive.

Take `CC(C)(C)Nc1noc(=O)n1C(C)(C)C`: the EC50 is above 100 µM and the 50% inhibitory concentration (IC50) is above 100 µM.

For the compound `Cc1ccc(Sc2ccc(C)cc2[N+](=O)[O-])c([N+](=O)[O-])c1`, the EC50 was above 97.7 µM and the IC50 is above 97.7 µM.

Regarding `COc1c(C)cc2c(C(C)C)c(O)c(O)c(C=O)c2c1O`, the EC50 is above 871 µM and the IC50 worked out at 14.8 µM.

Regarding `CCC1(CC)O[C@H]([C@@H](O)CCc2ccccc2O)[C@@H]([C@@H](O)CCc2ccccc2O)O1`, the EC50 was above 200 µM and the IC50 stood at 33.1 µM.

For the compound `COc1ccccc1NC1=NCC(C)S1` (stereo unspecified), the EC50 is above 200 µM and the IC50 was above 200 µM.

As for `Cc1c(Cl)ccc2c1NC(=O)C2(O)C1Cc2ccccc2C1=O` (stereo unspecified), the EC50 was above 28.8 µM and the IC50 was 12.6 µM.

For `Cc1ccc(Cc2n[nH]c(=O)[nH]2)cc1`, the EC50 is above 200 µM and the IC50 was above 200 µM.

Turning to `O=C(CSSCC(=O)c1ccccc1)c1ccccc1`, the EC50 was above 89.1 µM and the IC50 worked out at 11 µM.

For the compound `C/C=C1\CN(C)C[C@@]2(C(=O)OC)Cc3c(n(OC)c4ccccc34)C(=O)C[C@@H]12`, the EC50 was above 135 µM and the IC50 is 97.7 µM.

With `O=C(N(O)c1ccccc1Cl)C(O)(c1ccccc1)c1ccccc1`, the EC50 was above 20 µM and the IC50 is above 20 µM.

`NNC1=Cn2c(nc3ccccc32)NN1`: the result was inactive.

For `O=C(Nc1cccc2c1C(=O)c1c(NC(=O)c3ccccc3)ccc(Nc3cccc4c3C(=O)c3ccccc3C4=O)c1C2=O)c1ccccc1`, the EC50 is above 200 µM and the IC50 came out at 120 µM.

On to `O=[N+]([O-])c1ccc(-c2cn(-c3ccc(Cl)cc3)cn2)cc1`, for which the EC50 is above 100 µM and the IC50 is above 100 µM.

With `CN(CCN1C(=O)c2cccc3cccc(c23)C1=O)CCN1C(=O)c2cccc3cccc(c23)C1=O`, the EC50 was above 26.3 µM and the IC50 came to 9.12 µM.

Turning to `Cc1ccc(Cc2c(=O)[nH]nc3ccccc23)cc1`, the EC50 was above 39.8 µM and the IC50 was above 39.8 µM.

Consider `O=c1c(SSc2coc3ccccc3c2=O)coc2ccccc12`, for which the EC50 was above 200 µM and the IC50 was 5.13 µM.

For `Clc1cc2ncn(C3CCCO3)c2cc1Cl` (stereo unspecified), the EC50 is above 200 µM and the IC50 turned out to be 61.7 µM.

On to `COc1ccc(/C=C/C(=O)OCCc2ccccc2)cc1O`, for which the EC50 is above 8.32 µM and the IC50 was found to be 4.47 µM.

For the compound `COC(=O)c1ccn2c(N(C)C)[n+]3ccc(C(=O)OC)cc3c2c1`, the EC50 was above 100 µM and the IC50 is above 100 µM.

`CCCCCCCCCCOc1cc2c(=O)c(C(=O)OCC)c[nH]c2cc1OCC`: the EC50 was above 200 µM and the IC50 is above 200 µM.

Take `CP1(=S)CC(Cl)=C2CCCCC21` (stereo unspecified): the result was inactive.

As for `CCCCCOCCCCCCCC(=O)OCC1OC(n2cc(C)c(=O)[nH]c2=O)CC1N=[N+]=[N-]` (stereo unspecified), the result was active.

As for `CCOCc1cc(=O)c2cc3c(cc2o1)OC(C)(C)CC3`, the result was inactive.

Consider `CCOC(=O)c1nc2ccccc2nc1Nc1ccc(Cl)c(Cl)c1`, for which the EC50 was 151 µM and the IC50 was above 200 µM.

`CC(C)CCCC(C)[C@H]1CCC2C3CCC4C[C@@H](CCCC(c5cc(Cl)c(O)c(C(=O)O)c5)c5cc(Cl)c(O)c(C(=O)O)c5)CC[C@]4(C)C3CC[C@@]21C` (stereo partly specified): the half-maximal effective concentration (EC50) was 8.91 µM and the IC50 was above 200 µM.

For the compound `Cc1c(O)c(OC2OC(CO)C(O)C(O)C2O)cc2c1CC[C@@H]1C2(C)C(=O)C[C@]2(C)[C@@H]([C@@](C)(O)C(=O)CCC(C)(C)O)[C@H](O)C[C@@]12C` (stereo partly specified), the EC50 was above 200 µM and the IC50 is above 200 µM.

Turning to `O=S1(=O)CC2C3CC(Oc4ccccc4)C(C3)C2C1` (stereo unspecified), the EC50 was above 107 µM and the IC50 is above 107 µM.

For the compound `Cn1c(COC(=O)NC2CCCCC2)c(COC(=O)NC2CCCCC2)c2ccc3cc(Cl)c(Cl)cc3c21`, the EC50 is above 174 µM and the IC50 was found to be 6.46 µM.

`N.N.N.N.O=C([O-])CCl.O=C([O-])CCl.[Co+3].[O-][Cl+3]([O-])([O-])[O-]`: the result was inactive.

In the case of `O=C1NCCCc2nonc21`, the EC50 was above 200 µM and the IC50 is above 200 µM.

As for `Nc1ccc2c(c1)C1=NNC(=O)CC1C2` (stereo unspecified), the result was inactive.

`C=C1CN(S(=O)(=O)c2ccc([N+](=O)[O-])cc2)CC(=C)CN(S(=O)(=O)c2ccc([N+](=O)[O-])cc2)CC(=C)CN(S(=O)(=O)c2ccc([N+](=O)[O-])cc2)C1`: the EC50 was above 100 µM and the IC50 is above 100 µM.

Take `COC(=O)C1(C)CCCC2(C)C1CCC1(O)C(O)C(C(C)C)=CCC21` (stereo unspecified): the EC50 is above 200 µM and the IC50 was found to be 56.2 µM.

Take `O=C1c2cccc3c([N+](=O)[O-])ccc(c23)C(=O)N1CC1CCCO1` (stereo unspecified): the EC50 is above 2 µM and the IC50 stood at 0.195 µM.

`COc1ccc2nc3cccc([N+](=O)[O-])c3c(NCCN(C)C)c2c1`: the EC50 was above 2 µM and the IC50 was 0.0977 µM.

As for `CCOC(=O)c1nc2ccccc2nc1Oc1ccc(F)cc1`, the EC50 is above 200 µM and the IC50 is above 200 µM.

As to `Cc1nc2ccc(Cl)cc2c(-n2ccnc2)c1CCn1ccnc1`, the EC50 is above 200 µM and the IC50 came out at 89.1 µM.

In the case of `CC1(C)OC(=O)C(c2ccsc2)C(=O)O1`, the EC50 was above 1100 µM and the IC50 stood at 589 µM.

For the compound `Cc1cn(CC2OCC(CO)O2)c(=O)[nH]c1=O` (stereo unspecified), the EC50 is above 1290 µM and the IC50 turned out to be 1100 µM.

As for `CCOC(=O)/C=C(\N=P(c1ccccc1)(c1ccccc1)c1ccccc1)C(F)(F)C(F)(F)C(F)(F)C(F)(F)C(F)(F)F`, the EC50 is above 200 µM and the IC50 was above 200 µM.

With `O=c1c2ccccc2c(=O)n2n1-c1cccc(c1)CSSCc1cccc-2c1`, the result was inactive.

As to `COC(=O)C1C2C=CC(C2)N1S(=O)(=O)c1ccccc1` (stereo unspecified), the EC50 was above 200 µM and the IC50 is above 200 µM.

On to `O=Nc1ccccc1C(=O)O`, for which the EC50 was above 151 µM and the IC50 came out at 47.9 µM.

In the case of `C[PH+](C)CC[PH+](CC[PH+](c1ccccc1)c1ccccc1)c1ccccc1.[C-]#[O+].[C-]#[O+].[C-]#[O+].[Mo]` (stereo unspecified), the outcome was inactive.

As for `O=C(c1ccccc1)[C@H]1Nc2ccc(Cl)cc2[C@H]2c3ccccc3O[C@H]21`, the EC50 was above 27.5 µM and the IC50 is above 27.5 µM.

Turning to `COc1ccccc1NC(=S)Nc1cccc(C)n1`, the EC50 is 16.6 µM and the IC50 is 61.7 µM.

On to `CCN(CC)CC(=O)Nc1cccc(Cl)c1`, for which the EC50 is above 200 µM and the IC50 is above 200 µM.

As to `COc1cc2c3c(c1)nc(C)n3C(=O)C(C)S2` (stereo unspecified), the EC50 is above 200 µM and the IC50 is 50.1 µM.
